Molecular target: T1, gastrin receptor (Rattus norvegicus, UniProt P30553)
T1 construct: The stomach was excised and flushed with ca. 1 ml of unbuffered physiological saline solution; from tissue; host or cells: isolated whole stomach of immature rats (ca. 21 days old)
T1 sequence (P30553 1-452): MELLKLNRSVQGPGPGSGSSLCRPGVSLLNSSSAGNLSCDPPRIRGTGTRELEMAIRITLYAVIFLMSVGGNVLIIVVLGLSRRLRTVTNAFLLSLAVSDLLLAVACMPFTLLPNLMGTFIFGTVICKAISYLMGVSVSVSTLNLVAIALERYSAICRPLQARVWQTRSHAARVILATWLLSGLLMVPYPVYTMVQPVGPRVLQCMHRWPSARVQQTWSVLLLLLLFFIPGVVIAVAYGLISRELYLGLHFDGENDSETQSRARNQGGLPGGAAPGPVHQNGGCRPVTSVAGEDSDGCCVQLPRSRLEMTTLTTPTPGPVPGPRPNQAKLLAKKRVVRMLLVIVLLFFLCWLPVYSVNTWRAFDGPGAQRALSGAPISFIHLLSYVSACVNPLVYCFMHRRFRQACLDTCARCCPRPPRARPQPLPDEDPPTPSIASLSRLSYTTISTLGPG
Test: gastrin antagonist activity in immature rat stomach assay (pentagastrin dose-response, acid secretion)
Details: isolated immature rat stomach, cumulative pentagastrin dose-response curves; for Kb: read-out: Gastrin pKb (converted)
Procedure: The compounds of the examples were also tested for gastrin antagonist activity in an immature rat stomach assay. The procedure was as follows:
The oesophagus of immature rats (33-50 g, ca. 21 days old) was ligated at the level of the cardiac sphincter and the duodenal sphincter was cannulated. The stomach was excised and flushed with ca. 1 ml of unbuffered physiological saline solution. The fundus was punctured and cannulated. A further 4-5 ml of unbuffered solution was flushed through the stomach to ensure the preparation was not leaking. The stomach was lowered into a jacketed organ bath containing 40 ml of buffered solution containing 3×10^−8 M 5-methylfurmethide, maintained at 37° and gassed vigorously with 95% O2/5% CO2. The stomach was continuously perfused at a rate of 1 ml min^−1 with unbuffered solution gassed with 100% O2 with the perfusate passing over an internally referenced pH-electrode fixed 12 cm above the stomach.
After 120 min of stabilisation the drugs were added directly to the serosal solution in the organ bath and after a further 60 min cumulative pentagastrin dose-response curves were started. Changes in acid secretion were monitored and the curves analysed according to Black et al., Br. J. Pharmacol., 1985, 86, 581.

Row | SMILES | Kb | Gastrin pKb
1 | O=C(NO)c1cccc(NC(=O)c2nc(C3CCCCC3)[nH]c2COC23CC4CC(CC(C4)C2)C3)c1 [Example 286, 5-(Adamantan-1-yloxymethyl)-2-cyclohexyl-1H-imidazole-4-carboxylic Acid (3-hydroxycarbamoyl-phenyl)-amide] | 26.9 nM | –
2 | O=C(Cc1cccc(NC(=O)c2nc(C3CCCCC3)[nH]c2COC23CC4CC(CC(C4)C2)C3)c1)NO [Example 287, 5-(Adamantan-1-yloxymethyl)-2-cyclohexyl-1H-imidazole-4-carboxylic Acid (3-hydroxycarbamoylmethyl-phenyl)-amide] | 91.2 nM | –
3 | Cc1ccc(NC(=O)c2nc([C@H]3CC4C=C[C@@H]3C4)[nH]c2COC23CC4CC(CC(C4)C2)C3)cc1C(=O)O [Example 289, endo-5-{[5-(Adamantan-1-yloxymethyl)-2-((1S,2S)-bicyclo[2.2.1]hept-5-en-2-yl)-1H-imidazole-4-carbonyl]-amino}-2-methyl-benzoic Acid] | – | 8.74
4 | Cc1ccc(NC(=O)c2nc([C@@H]3CC4C=C[C@H]3C4)[nH]c2COC23CC4CC(CC(C4)C2)C3)cc1C(=O)O [Example 290, endo-5-{[5-(Adamantan-1-yloxymethyl)-2-((1R,2R)-bicyclo[2.2.1]hept-5-en-2-yl)-1H-imidazole-4-carbonyl]-amino}-2-methyl-benzoic Acid] | – | 8.55
5 | O=C(O)c1cccc(NC(=O)c2nc([C@H]3CC4CC[C@H]3C4)[nH]c2COC23CC4CC(CC(C4)C2)C3)c1 [Example 291, endo-3-{[5-(Adamantan-1-yloxymethyl)-2-((1S,2S)-bicyclo[2.2.1]hept-2-yl)-1H-imidazole-4-carbonyl]-amino}-benzoic Acid] | – | 9.12
6 | O=C(O)c1cccc(NC(=O)c2nc([C@@H]3CC4CC[C@@H]3C4)[nH]c2COC23CC4CC(CC(C4)C2)C3)c1 [Example 292, endo-3-{[5-(Adamantan-1-yloxymethyl)-2-((1R,2R)-bicyclo[2.2.1]hept-2-yl)-1H-imidazole-4-carbonyl]-amino}-benzoic Acid] | – | 8.57
7 | Cc1ccc(NC(=O)c2nc(C3C4CCC3CC4)[nH]c2COC23CC4CC(CC(C4)C2)C3)cc1C(=O)O (stereo not drawn) [Example 293, 5-{[5-(Adamantan-1-yloxymethyl)-2-bicyclo[2.2.1]hept-7-yl-1H-imidazole-4-carbonyl]-amino}-2-methyl-benzoic Acid] | 3.02 nM | –
8 | O=C(O)c1cccc(NC(=O)c2nc([C@@H]3CC4C=C[C@@H]3C4)[nH]c2COC23CC4CC(CC(C4)C2)C3)c1 [Example 294, exo-3-([5-(Adamantan-1-yloxymethyl)-2-((1S,2R)-bicyclo[2.2.1]hept-5-en-2-yl)-1H-imidazole-4-carbonyl]-amino}-benzoic Acid] | – | 8.43
9 | O=C(O)c1cccc(NC(=O)c2nc([C@H]3CC4C=C[C@H]3C4)[nH]c2COC23CC4CC(CC(C4)C2)C3)c1 [Example 295, exo-3-{[5-(Adamantan-1-yloxymethyl)-2-((1R,2S)-bicyclo[2.2.1]hept-5-en-2-yl)-1H-imidazole-4-carbonyl]-amino}-benzoic Acid] | – | 8.61
10 | Cc1ccc(NC(=O)c2nc(C3CCCCCC3)[nH]c2COC23CC4CC(CC(C4)C2)C3)cc1C(=O)O [Example 296, 5-{[5-(Adamantan-1-yloxymethyl)-2-cycloheptyl-1H-imidazole-4-carbonyl]-amino}-2-methyl-benzoic Acid] | 2.09 nM | –
11 | O=C(O)c1cccc(NC(=O)c2nc(C3CCCCCCC3)[nH]c2COC23CC4CC(CC(C4)C2)C3)c1 [Example 297, 3-{[5-(Adamantan-1-yloxymethyl)-2-cyclooctyl-1H-imidazole-4-carbonyl]-amino}-benzoic Acid] | 0.851 nM | –
12 | Cc1ccc(NC(=O)c2nc(C3CCCCCCC3)[nH]c2COC23CC4CC(CC(C4)C2)C3)cc1C(=O)O [Example 298, 5-{[5-(Adamantan-1-yloxymethyl)-2-cyclooctyl-1H-imidazole-4-carbonyl]-amino}-2-methyl-benzoic Acid] | 1.95 nM | –
13 | O=C(O)c1cc(NC(=O)c2nc(C3CCCCC3)[nH]c2COC23CC4CC(CC(C4)C2)C3)ccc1F [Example 299, 5-{[5-(Adamantan-1-yloxymethyl)-2-cyclohexyl-1H-imidazole-4-carbonyl]-amino}-2-fluoro-benzoic Acid] | 20.4 nM | –
14 | Cc1ccc(NC(=O)c2nc(C34CCC(CC3)CC4)[nH]c2COC23CC4CC(CC(C4)C2)C3)cc1C(=O)O [Example 300, 5-{[5-(Adamantan-1-yloxymethyl)-2-bicyclo[2.2.2]oct-1-yl-1H-imidazole-4-carbonyl]-amino}-2-methyl-benzoic Acid] | 3.02 nM | –
15 | Cc1ccc(NC(=O)c2nc(C34C=CC(CC3)CC4)[nH]c2COC23CC4CC(CC(C4)C2)C3)cc1C(=O)O [Example 301, 5-{[5-(Adamantan-1-yloxymethyl)-2-bicyclo[2.2.2]oct-2-en-1-yl-1H-imidazole-4-carbonyl]-amino}-2-methyl-benzoic Acid] | 2.63 nM | –

Further lines, with some results ahead:

Row | Kb | SMILES | Gastrin pKb
16 | 49 nM | C[C@@H](NC(=O)c1cccc(NC(=O)c2nc(C3CCCCC3)[nH]c2CCC23CC4CC(CC(C4)C2)C3)c1)C(=O)O [Example 273, (R)-2-(3-{[5-(2-Adamantan-1-yl-ethyl)-2-cyclohexyl-1H-imidazole-4-carbonyl]-amino}-benzoylamino)-propionic Acid] | –
17 | 1170 nM | Cc1ccccc1-c1nc(CCC23CC4CC(CC(C4)C2)C3)c(C=Cc2cccc(C(=O)O)c2)n1C [Example 276, 3-{2-[5-(2-Adamantan-1-yl-ethyl)-3-methyl-2-o-tolyl-3H-imidazol-4-yl]-vinyl}-benzoic Acid] | –
18 | 1000 nM | Cc1ccccc1-c1nc(CCC23CC4CC(CC(C4)C2)C3)c(CCc2cccc(C(=O)O)c2)n1C [Example 277, 3-{2-[5-(2-Adamantan-1-yl-ethyl)-3-methyl-2-o-tolyl-3H-imidazol-4-yl]-ethyl}-benzoic Acid] | –
19 | 64.6 nM | Cc1ccccc1-c1nc(CCc2cccc(C(=O)O)c2)c(CCC23CC4CC(CC(C4)C2)C3)n1C [Example 278, 3-{2-[5-(2-Adamantan-1-yl-ethyl)-1-methyl-2-o-tolyl-1H-imidazol-4-yl]-ethyl}-benzoic Acid] | –
20 | 145 nM | Cc1ccccc1-c1nc(CNc2cccc(C(=O)O)c2)c(CCC23CC4CC(CC(C4)C2)C3)n1C [Example 279, 3-{[5-(2-Adamantan-1-yl-ethyl)-1-methyl-2-o-tolyl-1H-imidazol-4-ylmethyl]-amino}-benzoic Acid] | –
21 | 1820 nM | Cc1ccccc1-c1nc(CCc2cccc(C(=O)O)c2)c(CCC23CC4CC(CC(C4)C2)C3)[nH]1 [Example 280, 3-{2-[5-(2-Adamantan-1-yl-ethyl)-2-o-tolyl-1H-imidazol-4-yl]-ethyl}-benzoic Acid] | –
22 | 2090 nM | Cc1ccccc1-c1nc(C(=O)Oc2cccc(C(=O)O)c2)c(CCC23CC4CC(CC(C4)C2)C3)[nH]1 [Example 281, 5-(2-Adamantan-1-yl-ethyl)-2-o-tolyl-1H-imidazole-4-carboxylic Acid 3-carboxy-phenyl Ester] | –
23 | 708 nM | O=C(O)c1cccc(OC(=O)c2nc(C3CCCCC3)[nH]c2CCC23CC4CC(CC(C4)C2)C3)c1 [Example 282, 5-(2-Adamantan-1-yl-ethyl)-2-cyclohexyl-1H-imidazole-4-carboxylic Acid 3-carboxy-phenyl Ester] | –
24 | 1150 nM | O=C(O)CCc1ccc(NC(=O)c2nc(C3CCCCC3)[nH]c2CCC23CC4CC(CC(C4)C2)C3)cc1 [Example 283, 3-(4-{[5-(2-Adamantan-1-yl-ethyl)-2-cyclohexyl-1H-imidazole-4-carbonyl]-amino}-phenyl)-propionic Acid] | –
25 | 97.7 nM | O=C(O)CCc1c(F)ccc(NC(=O)c2nc(C3CCCCC3)[nH]c2CCC23CC4CC(CC(C4)C2)C3)c1F [Example 284, 3-(3-{[5-(2-Adamantan-1-yl-ethyl)-2-cyclohexyl-1H-imidazole-4-carbonyl]-amino}-2,6-difluoro-phenyl)-propionic Acid] | –
26 | 1000 nM | O=C(Nc1cccc(C(=O)N2CCC[C@H]2C(=O)O)c1)c1nc(C2CCCCC2)[nH]c1CCC12CC3CC(CC(C3)C1)C2 [Example 285, (S)-1-(3-{[5-(2-Adamantan-1-yl-ethyl)-2-cyclohexyl-1H-imidazole-4-carbonyl]-amino}-benzoyl)-pyrrolidine-2-carboxylic Acid] | –
27 | 13.2 nM | O=C(O)c1cccc(NC(=O)c2nc(C3C4C=CC3C=C4)[nH]c2COC23CC4CC(CC(C4)C2)C3)c1 (stereo not drawn) [Example 288, 3-{[5-(Adamantan-1-yloxymethyl)-2-bicyclo[2.2.1]hepta-2,5-dien-7-yl-1H-imidazole-4-carbonyl]-amino}-benzoic Acid] | –

Source: US6479531B1, “Gastrin and cholecystokinin receptor ligands” (James Black Foundation Limited, priority 1998, dated 2002)
